Read-outs that look alike come from different tables or passages of the source.

These results are taken from patent US20230069722A1, “TUBULYSINS AND PROTEIN-TUBULYSIN CONJUGATES” (priority 2020, published 2023).

In assay [1] the test system is HCT15 cells. Put plainly: MDR cell based killing assay, HCT15 cells with or without Verapamil (CellTiter-Glo). Further details: species or system human. The note with it: for IC50: Homo sapiens; for HCT-15 with verapamil Ratio to Xa = H / HCT-15 Ratio to Xa = H: IC50 ratio to parent payload with Xa = H; for HCT-15 Ratio to Xa = H: without verapamil. The procedure, abridged: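 CellTiter-Glo luminescence after 5-day exposure gave viability of 1000 HCT15 cells per well, grown in RPMI/10% FBS ± 5 ug/mL Verapamil. Payload tested from 100 nM down to 15 pM in threefold steps; four-parameter logistic IC50 in molar; MDR shift expressed as −Verapamil/+Verapamil IC50 ratio.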
Background: Cellular ATP, detected with luciferase, serves as a proxy for viable cell number.

The test system of assay [2] is SK-BR-3 human breast adenocarcinoma cell line. Put plainly: SK-BR-3 anti-proliferation / cell kill assay (CellTiter-Glo, 144 hrs). It counts as cell-based. The settings on record: for IC50: Homo sapiens, SK-BR-3, read-out: SK-BR-3 IC50; for SK-BR-3 Ratio to Xa = H: IC50 ratio to parent payload with Xa = H. The procedure:
Anti-proliferation assays were performed using a SK-BR-3 human breast adenocarcinoma (pleural effusion) cell line. The cells were grown in McCoy's 5a Medium supplemented with 10% FBS, penicillin/streptomycin and L-glutamine. Cells were seeded 1000/well in 96-well plate in 80ul complete growth media one day prior to adding ADCs and incubated at 37° C. 5% CO2 overnight.
The ADCs were 1:3 serially diluted 10 points in assay media (Opti-MEM+0.1% BSA). The concentrations of the testing ADCs cover the range of 1 nM to ˜1000 nM and also starting from different concentrations based on the cell killing potency in order to see EC50 covers, leaving the last well (10th) as blank (no ADC or compound). ADCs were first 1:3 serially diluted 10 points in DMSO starting from […] (the starting concentration of each ADC is different according to the EC50s), leaving the last well as blank (containing only DMSO). 10 μl DMSO-diluted compound was transferred to 990 μl assay media (Opti-MEM+0.1% BSA) in a 96-well deep well dilution plate. 20 μl assay media-diluted ADC was added to cells. Cells were incubated at 37° C. […] for 6 days (144 hrs). Plates were developed by adding 100 μl CTG reagent/well to the cells CellTiter-Glo®, from Promega, Cat. No G7573), shaken at room temperature for 10 min, sealed with white adhesive bottom seal and luminescence was read with Envision. Cell kill %=[1−(T144sample−T144blank)/(T144DMSO−T144blank)]×100%, wherein T144 is the data at 144 hours.
The table below provides the drug-antibody ratios (DARs) for conjugates 1-37, along with the EC50 results from the SKBR assays for the same conjugates. The following linker-payloads (from Table P1) were prepared as described in PCT/US2019/068185, the content of which is hereby incorporated by reference in its entirety: LP4-Ve, LP4-Ve, LP25-Ve, LP25-Ve, LP26-Ve, LP26-Ve, LP17-Ve, LP13-Ve, LP19-Ve, LP2-Ve, LP21-Ve, LP6-Vb, LP24-Vb, LP23-Vb, and LP15-VIh.

[3] abbreviates: HCT-15, read-out: HCT-15 with verapamil IC50.

One may read the IC50 as the concentration at which inhibition is half-maximal. Take `CCCCCCN(C(=O)[C@@H](NC(=O)[C@H]1CCCCN1C)[C@@H](C)CC)[C@H](C[C@@H](O)c1nc(C(=O)N[C@@H](Cc2ccc(NC(=O)CN)c(F)c2)CC(C)(C)C(=O)O)cs1)C(C)C` [Compound P24, (4S)-5-[4-(2-aminoacetamido)-3-fluorophenyl]-4-({2-[(1R,3R)-3-[(2S,3S)—N-hexyl-3-methyl-2-{[(2R)-1-methylpiperidin-2-yl]formamido}pentanamido]-1-hydroxy-4-methylpentyl]-1,3-thiazol-4-yl}formamido)-2,2-dimethylpentanoic Acid]: in assay [1] (HCT-15, read-out: HCT-15 IC50), the IC50 was determined as 15.5 nM. Also, in assay [1] (setting [3]), the concentration for half-maximal inhibition (IC50) was 0.82 nM. In assay [1], the “HCT-15 with verapamil Ratio to Xa = H” value is reported as 3.2x and the “HCT-15 Ratio to Xa = H” value is given as 5.2x. Besides, in assay [2], the half-maximal inhibitory concentration (IC50) was 0.86 nM and the “SK-BR-3 Ratio to Xa = H” value was found to be 22x.

As to `CCCCCCN(C(=O)[C@@H](NC(=O)[C@H]1CCCCN1)[C@@H](C)CC)[C@H](C[C@@H](OC(C)=O)c1nc(C(=O)N[C@@H](Cc2ccc(NC(=O)CN)c(F)c2)CC(C)(C)C(=O)O)cs1)C(C)C` [Compound P27, (4S)-4-({2-[(1R,3R)-1-(acetyloxy)-3-[(2S,3S)—N-hexyl-3-methyl-2-[(2R)-piperidin-2-ylformamido]pentanamido]-4-methylpentyl]-1,3-thiazol-4-yl}formamido)-5-[4-(2-aminoacetamido)-3-fluorophenyl]-2,2-dimethylpentanoic Acid], in assay [1] (HCT-15, read-out: HCT-15 IC50), the half-inhibitory concentration (IC50) is 1.48 nM. Also, the IC50 in assay [1] (setting [3]) was 0.09 nM. Further, in assay [1], the “HCT-15 with verapamil Ratio to Xa = H” value is reported as 3.8x and the “HCT-15 Ratio to Xa = H” value is reported as 6.4x. Further, in assay [2], the IC50 was determined as 0.11 nM and the “SK-BR-3 Ratio to Xa = H” value came out at 3.9x.

For `CCCCCCN(C(=O)[C@@H](NC(=O)[C@H]1CCCCN1)[C@@H](C)CC)[C@H](C[C@@H](OCC)c1nc(C(=O)N[C@@H](Cc2ccc(NC(=O)CN)cc2)CC(C)(C)C(=O)O)cs1)C(C)C` [Compound P32, (4S)-5-[4-(2-aminoacetamido)phenyl]-4-({2-[(1R,3R)-1-ethoxy-3-[(2S,3S)—N-hexyl-3-methyl-2-[(2R)-piperidin-2-ylformamido]pentanamido]-4-methylpentyl]-1,3-thiazol-4-yl}formamido)-2,2-dimethylpentanoic Acid], the IC50 in assay [1] (HCT-15, read-out: HCT-15 IC50) was over 100 nM; in assay [1] (setting [3]), over 100 nM; in assay [2], over 1 nM.

Consider `CCCCCCN(C(=O)[C@@H](NC(=O)[C@H]1CCCCN1C)[C@@H](C)CC)[C@H](C[C@@H](OCC)c1nc(C(=O)N[C@@H](Cc2ccc(NC(=O)CN)c(F)c2)CC(C)(C)C(=O)O)cs1)C(C)C` [Compound P26, (4S)-5-[4-(2-aminoacetamido)-3-fluorophenyl]-4-({2-[(1R,3R)-1-ethoxy-3-[(2S,3S)—N-hexyl-3-methyl-2-{[(2R)-1-methylpiperidin-2-yl]formamido}pentanamido]-4-methylpentyl]-1,3-thiazol-4-yl}formamido)-2,2-dimethylpentanoic Acid], for which, in assay [1] (HCT-15, read-out: HCT-15 IC50), the 50% inhibitory concentration (IC50) stood at 0.25 nM. In addition, the IC50 in assay [1] (setting [3]) stood at 0.05 nM. In assay [1], the “HCT-15 with verapamil Ratio to Xa = H” value came out at 2.8x and the “HCT-15 Ratio to Xa = H” value is 4.9x. Besides, in assay [2], the concentration for half-maximal inhibition (IC50) amounted to 0.05 nM and the “SK-BR-3 Ratio to Xa = H” value is listed as 2.6x.

For `CCCCCCN(C(=O)[C@@H](NC(=O)[C@H]1CCCCN1C)[C@@H](C)CC)[C@H](C[C@@H](OC(C)=O)c1nc(C(=O)N[C@@H](Cc2ccc(NC(=O)CN)c(F)c2)CC(C)(C)C(=O)O)cs1)C(C)C` [Compound P25, (4S)-4-({2-[(1R,3R)-1-(acetyloxy)-3-[(2S,3S)—N-hexyl-3-methyl-2-{[(2R)-1-methylpiperidin-2-yl]formamido}pentanamido]-4-methylpentyl]-1,3-thiazol-4-yl}formamido)-5-[4-(2-aminoacetamido)-3-fluorophenyl]-2,2-dimethylpentanoic Acid], the IC50 in assay [1] (HCT-15, read-out: HCT-15 IC50) stood at 0.08 nM. The half-maximal inhibitory concentration (IC50) in assay [1] (setting [3]) was 0.04 nM. In addition, in assay [1], the “HCT-15 with verapamil Ratio to Xa = H” value is listed as 4.0x and the “HCT-15 Ratio to Xa = H” value turned out to be 4.0x. Moreover, in assay [2], the IC50 came out at 0.03 nM and the “SK-BR-3 Ratio to Xa = H” value turned out to be 1.9x.

Regarding `CCCCCCN(C(=O)[C@@H](NC(=O)[C@H]1CCCCN1C)[C@@H](C)CC)[C@H](C[C@@H](OCC)c1nc(C(=O)N[C@@H](Cc2ccc(NC(=O)CN)cc2)CC(C)(C)C(=O)O)cs1)C(C)C` [Compound P31, (4S)-5-[4-(2-aminoacetamido)phenyl]-4-({2-[(1R,3R)-1-ethoxy-3-[(2S,3S)—N-hexyl-3-methyl-2-{[(2R)-1-methylpiperidin-2-yl]formamido}pentanamido]-4-methylpentyl]-1,3-thiazol-4-yl}formamido)-2,2-dimethylpentanoic Acid], the 50% inhibitory concentration (IC50) in assay [1] (HCT-15, read-out: HCT-15 IC50) was determined as 0.81 nM. Also, in assay [1] (setting [3]), the concentration for half-maximal inhibition (IC50) was 0.29 nM. In assay [1], the “HCT-15 with verapamil Ratio to Xa = H” value is 4.3x and the “HCT-15 Ratio to Xa = H” value is recorded as 9.7x. In assay [2], the IC50 is 0.07 nM and the “SK-BR-3 Ratio to Xa = H” value came out at 2.4x.

Consider `CCCCCCN(C(=O)[C@@H](NC(=O)[C@H]1CCCCN1C)[C@@H](C)CC)[C@H](C[C@@H](OC(C)=O)c1nc(C(=O)N[C@@H](Cc2ccc(NC(=O)CN)cc2)CC(C)(C)C(=O)O)cs1)C(C)C` [Compound P28, (4S)-4-({2-[(1R,3R)-1-(acetyloxy)-3-[(2S,3S)—N-hexyl-3-methyl-2-{[(2R)-1-methylpiperidin-2-yl]formamido}pentanamido]-4-methylpentyl]-1,3-thiazol-4-yl}formamido)-5-[4-(2-aminoacetamido)phenyl]-2,2-dimethylpentanoic Acid], for which the IC50 in assay [1] (HCT-15, read-out: HCT-15 IC50) was 0.17 nM. In addition, the IC50 in assay [1] (setting [3]) came out at 0.11 nM. In addition, in assay [1], the “HCT-15 with verapamil Ratio to Xa = H” value was 5.8x and the “HCT-15 Ratio to Xa = H” value is 6.9x. In assay [2], the IC50 was 0.03 nM and the “SK-BR-3 Ratio to Xa = H” value stood at 2.5x.

As to `CCCCCCN(C(=O)[C@@H](NC(=O)[C@H]1CCCCN1C)[C@@H](C)CC)[C@H](C[C@@H](OC(C)=O)c1nc(C(=O)N[C@@H](Cc2ccc(NCCN)cc2)CC(C)(C)C(=O)O)cs1)C(C)C` [Compound P30, (4S)-4-({2-[(1R,3R)-1-(acetyloxy)-3-[(2S,3S)—N-hexyl-3-methyl-2-{[(2R)-1-methylpiperidin-2-yl]formamido}pentanamido]-4-methylpentyl]-1,3-thiazol-4-yl}formamido)-5-{4-[(2-aminoethyl)amino]phenyl}-2,2-dimethylpentanoic Acid], in assay [1] (HCT-15, read-out: HCT-15 IC50), the IC50 came to 2.64 nM. Also, the 50% inhibitory concentration (IC50) in assay [1] (setting [3]) turned out to be 0.42 nM. Moreover, in assay [1], the “HCT-15 with verapamil Ratio to Xa = H” value amounted to 22x and the “HCT-15 Ratio to Xa = H” value stood at 155x. In addition, in assay [2], the half-inhibitory concentration (IC50) worked out at 0.45 nM and the “SK-BR-3 Ratio to Xa = H” value was determined as 34x.
